Laboratory results: patent US12268674B2, “Mi-2β inhibitor as an immunotherapy agent” (BioVentures, LLC, priority 2021, dated 2025)

Experiments:
Format in all cases: binding
ABCB6 = target: T1, ABCB6 (Homo sapiens, UniProt Q9NP58); experiment: ATPase profile (ATP acyl phosphate probe); conditions: ABCB6, SEQ ID NO: 3, ATP BS
T1 construct: to get the native cell lysate; host or cells: A375 cell lysate

ABCB7 = target: T2, ABCB7 (Homo sapiens, UniProt O75027); experiment: ATPase profile (ATP acyl phosphate probe); conditions: ABCB7, SEQ ID NO: 4, ATP BS
T2 construct: to get the native cell lysate; host or cells: A375 cell lysate

ABCD3 = target: T3, ABCD3 (Homo sapiens, UniProt P28288); experiment: ATPase profile (ATP acyl phosphate probe); conditions: ABCD3, SEQ ID NO: 13, ATP BS
T3 construct: to get the native cell lysate; host or cells: A375 cell lysate

ABCE1 = target: T4, ABCE1 (Homo sapiens, UniProt P61221); experiment: ATPase profile (ATP acyl phosphate probe); conditions: ABCE1, SEQ ID NO: 15, ATP BS
T4 construct: to get the native cell lysate; host or cells: A375 cell lysate

AK3 = target: T5, AK3 (Homo sapiens, UniProt Q9UIJ7); experiment: ATPase profile (ATP acyl phosphate probe); conditions: AK3, SEQ ID NO: 34, ATP BS
T5 construct: to get the native cell lysate; host or cells: A375 cell lysate

AK5 = target: T6, AK5 (Homo sapiens, UniProt Q9Y6K8); experiment: ATPase profile (ATP acyl phosphate probe); conditions: AK5, SEQ ID NO: 36, ATP BS
T6 construct: to get the native cell lysate; host or cells: A375 cell lysate

CCT3 = target: T7, CCT3 (Homo sapiens, UniProt P49368); experiment: ATPase profile (ATP acyl phosphate probe); conditions: CCT3, SEQ ID NO: 52, ATP BS
T7 construct: to get the native cell lysate; host or cells: A375 cell lysate

CCT4 = target: T8, CCT4 (Homo sapiens, UniProt P50991); experiment: ATPase profile (ATP acyl phosphate probe); conditions: CCT4, SEQ ID NO: 53, ATP BS
T8 construct: to get the native cell lysate; host or cells: A375 cell lysate

CCT8 = target: T9, CCT8 (Homo sapiens, UniProt P50990); experiment: ATPase profile (ATP acyl phosphate probe); conditions: CCT8, SEQ ID NO: 56, ATP BS
T9 construct: to get the native cell lysate; host or cells: A375 cell lysate

CLPX = target: T10, CLPX (Homo sapiens, UniProt O76031); experiment: ATPase profile (ATP acyl phosphate probe); conditions: SEQ ID NO: 59, ATP BS
T10 construct: endogenous in cells; host or cells: A375 cell lysate

CNP = target: T11, CNP (Homo sapiens, UniProt P09543); experiment: ATPase profile (ATP acyl phosphate probe); conditions: SEQ ID NO: 61, ATP BS
T11 construct: endogenous in cells; host or cells: A375 cell lysate

HARS = target: T12, HARS (Homo sapiens, UniProt P12081); experiment: ATPase profile (ATP acyl phosphate probe); conditions: SEQ ID NO: 89, ATP BS
T12 construct: endogenous in cells; host or cells: A375 cell lysate

HSP90B2P, TRA1 = target: T13, HSP90B2P, TRA1 (Homo sapiens, UniProt P14625); experiment: ATPase profile (ATP acyl phosphate probe); conditions: TRA1, SEQ ID NO: 99, ATP BS, read-out: Inhibition (%) by 1 μM Z36-MP5
T13 construct: to get the native cell lysate; endogenous in cells; host or cells: A375

HSPA2 = target: T14, HSPA2 (Homo sapiens, UniProt P54652); experiment: ATPase profile (ATP acyl phosphate probe)
T14 construct: to get the native cell lysate; endogenous in cells; host or cells: A375

NADSYN1 = target: T15, NADSYN1 (Homo sapiens, UniProt Q6IA69); experiment: ATPase profile (ATP acyl phosphate probe); conditions: NADSYN1, SEQ ID NO: 130, ATP BS
T15 construct: to get the native cell lysate; endogenous in cells; host or cells: A375

NARS = target: T16, NARS (Homo sapiens, UniProt O43776); experiment: ATPase profile (ATP acyl phosphate probe); conditions: SEQ ID NO: 131, ATP BS
T16 construct: to get the native cell lysate; endogenous in cells; host or cells: A375

NME1, NME2 = experiment: ATPase profile (ATP acyl phosphate probe); conditions: NME1, NME2, SEQ ID NO: 133, ATP BS
NMNAT3 = target: T17, NMNAT3 (Homo sapiens, UniProt Q96T66); experiment: ATPase profile (ATP acyl phosphate probe); conditions: NMNAT3, SEQ ID NO: 135, ATP BS
T17 construct: to get the native cell lysate; endogenous in cells; host or cells: A375

NRK1 = target: T18, NRK1 (Homo sapiens, UniProt Q9NWW6); experiment: ATPase profile (ATP acyl phosphate probe); conditions: NRK1, SEQ ID NO: 137, ATP BS
T18 construct: to get the native cell lysate; endogenous in cells; host or cells: A375

PFKFB2 = target: T19, PFKFB2 (Homo sapiens, UniProt O60825); experiment: ATPase profile (ATP acyl phosphate probe); conditions: PFKFB2, SEQ ID NO: 158, ATP BS
T19 construct: to get the native cell lysate; endogenous in cells; host or cells: A375 cell lysate

PKM, PKM2 = target: T20, PKM, PKM2 (Homo sapiens, UniProt P14618); experiment: ATPase profile (ATP acyl phosphate probe); conditions: PKM2, SEQ ID NO: 161, ATP BS
T20 construct: to get the native cell lysate; endogenous in cells; host or cells: A375 cell lysate

POLR3A = POLR3A (Homo sapiens, UniProt O14802); experiment: ATPase profile (ATP acyl phosphate probe); conditions: SEQ ID NO: 164, ATP BS
RFC1 = target: T21, RFC1 (Homo sapiens, UniProt P35251); experiment: ATPase profile (ATP acyl phosphate probe); conditions: RFC1, SEQ ID NO: 183, ATP BS
T21 construct: to get the native cell lysate; endogenous in cells; host or cells: A375 cell lysate

RFC2 = target: T22, RFC2 (Homo sapiens, UniProt P35250); experiment: ATPase profile (ATP acyl phosphate probe); conditions: RFC2, SEQ ID NO: 184, ATP BS
T22 construct: to get the native cell lysate; endogenous in cells; host or cells: A375 cell lysate

SARS = SARS (Homo sapiens, UniProt P49591); conditions: SEQ ID NO: 190, ATP BS
SLC25A24 = target: T23, SLC25A24 (Homo sapiens, UniProt Q6NUK1); experiment: ATPase profile (ATP acyl phosphate probe); conditions: SLC25A24, SEQ ID NO: 192, ATP BS
T23 construct: to get the native cell lysate; endogenous in cells; host or cells: A375 cell lysate

TOR1A = target: T24, TOR1A (Homo sapiens, UniProt O14656); experiment: ATPase profile (ATP acyl phosphate probe); conditions: SEQ ID NO: 203, ATP BS
T24 construct: to get the native cell lysate; endogenous in cells; host or cells: A375 cell lysate

TOR1B = target: T25, TOR1B (Homo sapiens, UniProt O14657); experiment: ATPase profile (ATP acyl phosphate probe); conditions: SEQ ID NO: 204, ATP BS
T25 construct: to get the native cell lysate; endogenous in cells; host or cells: A375 cell lysate

TRAP1 = target: T26, TRAP1 (Homo sapiens, UniProt Q12931); experiment: ATPase profile (ATP acyl phosphate probe)
T26 construct: to get the native cell lysate; endogenous in cells; host or cells: A375 cell lysate

UBA5 = target: T27, UBA5 (Homo sapiens, UniProt Q9GZZ9); experiment: ATPase profile (ATP acyl phosphate probe); conditions: UBA5, SEQ ID NO: 221, ATP BS
T27 construct: to get the native cell lysate; endogenous in cells; host or cells: A375 cell lysate
T27 sequence (Q9GZZ9 whole entry): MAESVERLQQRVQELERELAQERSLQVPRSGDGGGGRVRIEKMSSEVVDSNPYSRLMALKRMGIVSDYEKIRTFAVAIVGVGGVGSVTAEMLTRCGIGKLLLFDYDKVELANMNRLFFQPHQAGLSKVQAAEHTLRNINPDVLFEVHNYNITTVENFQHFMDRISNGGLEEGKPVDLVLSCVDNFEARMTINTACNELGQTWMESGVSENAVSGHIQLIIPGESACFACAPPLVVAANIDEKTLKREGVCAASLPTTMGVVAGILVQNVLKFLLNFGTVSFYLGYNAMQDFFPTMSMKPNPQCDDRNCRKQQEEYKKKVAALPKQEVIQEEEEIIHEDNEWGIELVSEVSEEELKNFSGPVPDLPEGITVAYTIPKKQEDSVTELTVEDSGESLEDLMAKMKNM

T14 sequence (P54652 whole entry): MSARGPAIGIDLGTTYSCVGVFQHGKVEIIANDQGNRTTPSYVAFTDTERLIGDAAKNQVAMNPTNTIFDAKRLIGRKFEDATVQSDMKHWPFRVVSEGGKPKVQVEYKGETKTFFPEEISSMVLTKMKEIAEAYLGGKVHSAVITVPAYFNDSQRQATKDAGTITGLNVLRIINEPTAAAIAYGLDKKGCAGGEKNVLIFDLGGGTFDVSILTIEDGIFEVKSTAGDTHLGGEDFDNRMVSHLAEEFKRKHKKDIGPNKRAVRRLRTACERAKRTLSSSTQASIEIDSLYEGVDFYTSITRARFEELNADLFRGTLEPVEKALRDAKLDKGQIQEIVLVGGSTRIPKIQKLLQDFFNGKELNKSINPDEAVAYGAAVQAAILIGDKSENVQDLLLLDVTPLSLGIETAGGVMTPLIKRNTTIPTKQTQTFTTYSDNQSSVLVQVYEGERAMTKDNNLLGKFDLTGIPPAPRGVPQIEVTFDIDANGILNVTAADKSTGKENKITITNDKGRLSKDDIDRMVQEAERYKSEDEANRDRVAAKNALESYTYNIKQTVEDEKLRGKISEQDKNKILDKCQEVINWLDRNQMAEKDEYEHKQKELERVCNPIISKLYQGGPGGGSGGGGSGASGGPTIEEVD
T26 sequence (Q12931 60-704): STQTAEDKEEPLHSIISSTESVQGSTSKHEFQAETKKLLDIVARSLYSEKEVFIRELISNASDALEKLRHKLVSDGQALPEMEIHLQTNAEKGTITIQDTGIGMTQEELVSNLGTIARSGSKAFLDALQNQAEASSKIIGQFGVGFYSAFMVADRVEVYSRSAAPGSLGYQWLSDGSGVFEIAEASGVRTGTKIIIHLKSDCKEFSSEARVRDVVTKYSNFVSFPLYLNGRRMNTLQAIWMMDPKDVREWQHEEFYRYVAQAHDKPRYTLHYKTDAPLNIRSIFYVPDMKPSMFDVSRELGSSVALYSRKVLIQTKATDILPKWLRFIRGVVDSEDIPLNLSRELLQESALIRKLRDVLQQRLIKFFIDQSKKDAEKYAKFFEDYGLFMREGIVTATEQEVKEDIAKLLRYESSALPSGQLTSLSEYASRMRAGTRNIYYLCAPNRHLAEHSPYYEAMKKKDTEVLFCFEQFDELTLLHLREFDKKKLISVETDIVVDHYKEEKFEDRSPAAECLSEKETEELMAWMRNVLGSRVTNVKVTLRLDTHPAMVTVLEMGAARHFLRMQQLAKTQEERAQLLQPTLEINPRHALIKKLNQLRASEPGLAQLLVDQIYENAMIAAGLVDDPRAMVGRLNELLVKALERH
T19 sequence (O60825 whole entry): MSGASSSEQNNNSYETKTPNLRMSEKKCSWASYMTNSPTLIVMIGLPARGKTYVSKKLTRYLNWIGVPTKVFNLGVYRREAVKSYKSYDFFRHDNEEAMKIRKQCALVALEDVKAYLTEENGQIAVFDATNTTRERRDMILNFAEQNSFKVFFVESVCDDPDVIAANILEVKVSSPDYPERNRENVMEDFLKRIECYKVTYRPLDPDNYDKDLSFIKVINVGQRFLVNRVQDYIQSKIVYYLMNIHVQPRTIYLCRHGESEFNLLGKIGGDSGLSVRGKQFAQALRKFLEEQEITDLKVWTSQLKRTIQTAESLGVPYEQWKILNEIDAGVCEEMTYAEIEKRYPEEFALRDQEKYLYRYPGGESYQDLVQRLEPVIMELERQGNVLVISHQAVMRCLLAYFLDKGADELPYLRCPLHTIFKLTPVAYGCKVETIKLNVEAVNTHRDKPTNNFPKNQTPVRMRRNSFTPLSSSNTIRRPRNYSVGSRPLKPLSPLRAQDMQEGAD
T10 sequence (O76031 57-633): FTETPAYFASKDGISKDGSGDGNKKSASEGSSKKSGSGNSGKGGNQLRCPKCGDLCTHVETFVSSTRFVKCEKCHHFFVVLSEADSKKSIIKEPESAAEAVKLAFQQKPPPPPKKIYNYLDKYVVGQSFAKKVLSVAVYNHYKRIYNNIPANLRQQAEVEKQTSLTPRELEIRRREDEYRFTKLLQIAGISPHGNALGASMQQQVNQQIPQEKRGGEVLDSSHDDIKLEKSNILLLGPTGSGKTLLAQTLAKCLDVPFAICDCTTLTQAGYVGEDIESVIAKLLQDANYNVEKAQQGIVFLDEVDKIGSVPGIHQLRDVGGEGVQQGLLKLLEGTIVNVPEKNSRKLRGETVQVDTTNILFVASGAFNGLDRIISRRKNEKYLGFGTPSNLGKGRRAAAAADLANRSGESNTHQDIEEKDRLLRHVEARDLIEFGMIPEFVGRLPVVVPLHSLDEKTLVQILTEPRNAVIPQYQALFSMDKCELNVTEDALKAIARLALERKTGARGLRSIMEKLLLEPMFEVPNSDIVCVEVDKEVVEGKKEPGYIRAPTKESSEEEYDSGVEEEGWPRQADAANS
Sequence of SARS (P49591 whole entry, looked up): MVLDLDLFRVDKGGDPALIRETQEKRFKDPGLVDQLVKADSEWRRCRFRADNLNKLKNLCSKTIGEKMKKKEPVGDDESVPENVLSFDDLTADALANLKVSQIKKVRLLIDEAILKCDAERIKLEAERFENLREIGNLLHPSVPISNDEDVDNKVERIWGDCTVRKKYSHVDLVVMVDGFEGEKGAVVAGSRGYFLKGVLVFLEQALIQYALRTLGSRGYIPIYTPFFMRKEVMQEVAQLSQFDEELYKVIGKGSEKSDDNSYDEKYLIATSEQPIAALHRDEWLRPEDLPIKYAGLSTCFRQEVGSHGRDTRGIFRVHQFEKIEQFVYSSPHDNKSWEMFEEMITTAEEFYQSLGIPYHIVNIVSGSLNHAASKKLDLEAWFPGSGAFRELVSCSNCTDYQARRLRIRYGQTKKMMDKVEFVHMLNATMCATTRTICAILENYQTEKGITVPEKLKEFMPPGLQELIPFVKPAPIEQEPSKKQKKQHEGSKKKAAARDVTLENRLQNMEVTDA
T13 sequence (P14625 22-803): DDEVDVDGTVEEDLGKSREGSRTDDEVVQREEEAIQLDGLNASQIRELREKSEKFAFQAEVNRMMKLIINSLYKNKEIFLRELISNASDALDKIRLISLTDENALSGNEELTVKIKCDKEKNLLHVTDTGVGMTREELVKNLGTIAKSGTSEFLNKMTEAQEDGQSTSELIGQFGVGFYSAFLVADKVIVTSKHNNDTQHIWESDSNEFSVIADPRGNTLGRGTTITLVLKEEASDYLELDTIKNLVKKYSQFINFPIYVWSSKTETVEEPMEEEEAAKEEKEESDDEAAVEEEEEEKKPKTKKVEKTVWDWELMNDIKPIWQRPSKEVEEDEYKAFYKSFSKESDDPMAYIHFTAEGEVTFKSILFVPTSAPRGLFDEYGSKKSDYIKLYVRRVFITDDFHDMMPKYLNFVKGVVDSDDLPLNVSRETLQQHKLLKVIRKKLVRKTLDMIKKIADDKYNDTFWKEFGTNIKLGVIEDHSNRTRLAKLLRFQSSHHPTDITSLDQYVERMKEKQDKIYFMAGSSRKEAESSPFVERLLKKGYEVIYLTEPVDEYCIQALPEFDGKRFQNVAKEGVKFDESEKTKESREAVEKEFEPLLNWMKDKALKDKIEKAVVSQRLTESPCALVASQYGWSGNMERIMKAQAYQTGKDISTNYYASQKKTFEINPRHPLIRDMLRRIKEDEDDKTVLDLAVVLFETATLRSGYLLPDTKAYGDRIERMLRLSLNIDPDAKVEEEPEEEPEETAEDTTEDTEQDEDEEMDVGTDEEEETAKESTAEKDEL
T18 sequence (Q9NWW6 whole entry): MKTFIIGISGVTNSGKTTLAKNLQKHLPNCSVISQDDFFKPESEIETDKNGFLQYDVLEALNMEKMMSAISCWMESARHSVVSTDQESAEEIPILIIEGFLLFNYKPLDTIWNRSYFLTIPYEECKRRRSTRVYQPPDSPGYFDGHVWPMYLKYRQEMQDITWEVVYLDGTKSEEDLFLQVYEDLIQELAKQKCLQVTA
T20 sequence (P14618 whole entry): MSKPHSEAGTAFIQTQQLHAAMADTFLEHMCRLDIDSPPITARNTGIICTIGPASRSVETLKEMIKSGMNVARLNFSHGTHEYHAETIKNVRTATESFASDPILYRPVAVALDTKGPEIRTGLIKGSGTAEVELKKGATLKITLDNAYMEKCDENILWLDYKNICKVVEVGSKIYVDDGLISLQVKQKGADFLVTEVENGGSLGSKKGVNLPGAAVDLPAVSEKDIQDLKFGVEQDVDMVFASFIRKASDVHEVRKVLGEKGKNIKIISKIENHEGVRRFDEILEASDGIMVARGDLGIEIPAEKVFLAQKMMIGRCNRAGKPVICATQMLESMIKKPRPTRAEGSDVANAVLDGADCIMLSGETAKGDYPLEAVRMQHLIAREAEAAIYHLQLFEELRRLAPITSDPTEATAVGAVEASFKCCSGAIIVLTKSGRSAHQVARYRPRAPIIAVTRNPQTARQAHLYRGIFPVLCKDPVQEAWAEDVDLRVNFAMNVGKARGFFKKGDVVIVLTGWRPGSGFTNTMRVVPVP

## Cn1c(=O)[nH]c2ccc(-c3cccc(C(=O)NC4CCn5ccnc5C4)c3)cc21 (centres unmarked) [Z36-MP5, 3-(3-methyl-2-oxo-2,3-dihydro-1H-benzo[d]imidazol-5-yl)-N-(5,6,7,8-tetrahydroimidazo[1,2-a]pyridin-7-yl)benzamide]
ABCB6
  Inhibition (%) by 1 μM Z36-MP5: 8.49%
ABCB7
  Inhibition (%) by 1 μM Z36-MP5: 0.34%
ABCD3
  Inhibition (%) by 1 μM Z36-MP5: 3.07%
ABCE1
  Inhibition (%) by 1 μM Z36-MP5: −4.76%
AK3
  Inhibition (%) by 1 μM Z36-MP5: 19.58%
AK5
  Inhibition (%) by 1 μM Z36-MP5: 2.21%
CCT3
  Inhibition (%) by 1 μM Z36-MP5: 10.09%
CCT4
  Inhibition (%) by 1 μM Z36-MP5: 11.95%
CCT8
  Inhibition (%) by 1 μM Z36-MP5: 9.18%
CLPX
  Inhibition (%) by 1 μM Z36-MP5: 0.44%
CNP
  Inhibition (%) by 1 μM Z36-MP5: −17.28%
HARS
  Inhibition (%) by 1 μM Z36-MP5: 4.68%
HSP90B2P, TRA1
  inhibition at 1 µM: -6.72%
HSPA2; HSPA2, SEQ ID NO: 102, ATP BS
  Inhibition (%) by 1 μM Z36-MP5: −1.50%
HSPA2; HSPA2, SEQ ID NO: 103, ATP BS
  Inhibition (%) by 1 μM Z36-MP5: −5.18%
NADSYN1
  Inhibition (%) by 1 μM Z36-MP5: −2.19%
NARS
  Inhibition (%) by 1 μM Z36-MP5: 2.36%
NME1, NME2
  Inhibition (%) by 1 μM Z36-MP5: −1.52%
NMNAT3
  Inhibition (%) by 1 μM Z36-MP5: 9.62%
NRK1
  Inhibition (%) by 1 μM Z36-MP5: 0.34%
PFKFB2
  Inhibition (%) by 1 μM Z36-MP5: 14.74%
PKM, PKM2
  Inhibition (%) by 1 μM Z36-MP5: 28.24%
POLR3A
  Inhibition (%) by 1 μM Z36-MP5: 4.31%
RFC1
  Inhibition (%) by 1 μM Z36-MP5: −12.52%
RFC2
  Inhibition (%) by 1 μM Z36-MP5: 1.52%
SARS
  Inhibition (%) by 1 μM Z36-MP5: 3.57%
SLC25A24
  Inhibition (%) by 1 μM Z36-MP5: 11.88%
TOR1A
  Inhibition (%) by 1 μM Z36-MP5: 4.27%
TOR1B
  Inhibition (%) by 1 μM Z36-MP5: 2.00%
TRAP1; TRAP1, SEQ ID NO: 209, ATP BS
  Inhibition (%) by 1 μM Z36-MP5: −10.78%
TRAP1; TRAP1, SEQ ID NO: 210, ATP BS
  Inhibition (%) by 1 μM Z36-MP5: −11.57%
UBA5
  Inhibition (%) by 1 μM Z36-MP5: −12.85%
